# Results taken from patent US6312703A, “Compressed lecithin preparations” (Lecigel, LLC, priority 1999, dated 2001).
# Key:
# serum cholesterol = test: Cholesterol lowering in hamsters fed LCP, Lescol or the combination, bled after two weeks; assay type: in vivo, Golden Syrian hamsters; settings: diet with 2% LCP and/or 0.01% Lescol
# Method: A study was performed to compare the effects of cholesterol reduction using the 2% LCP alone, 0.01% Lescol (a HMG CoA reductase inhibitor) alone, and a combination of 0.01% Lescol mixed with the phospholipids and extruded to create the LCP. The dosage was administered to Golden Syrian hamsters which were bled after two weeks to determine the cholesterol lowering effects.
# LDL cholesterol = settings: 60 hypercholesterolemic patients; Gurevich et al.; cited from earlier work
Structure (SMILES),HDL (serum cholesterol),Non HDL (serum cholesterol),Total Cholesterol (serum cholesterol),Lovastatin dose required to reduce LDL cholesterol level to a value of 130 (LDL cholesterol) [mg/day]
CC(C)n1c(/C=C/[C@@H](O)C[C@@H](O)CC(=O)O)c(-c2ccc(F)cc2)c2ccccc21 (racemic) [Lescol],1.77 ± 0.16,1.61 ± 0.63,3.37 ± 0.67,–
CC[C@H](C)C(=O)O[C@H]1C[C@@H](C)C=C2C=C[C@H](C)[C@H](CC[C@@H]3C[C@@H](O)CC(=O)O3)[C@H]21 [Lovastatin],–,–,–,40
